In patent US6875451B2, “Compositions and methods for the treatment of primary and metastatic neoplastic diseases using arsenic compounds” (PolaRx Biopharmaceuticals Inc., priority 1997, dated 2005):

Legend:
Assay type in all cases: cell-based
NCI/ADR-RES = experiment: SRB growth assay, 2 days exposure, breast cancer
Procedure: (§1) Arsenic trioxide (1 mg/ml, 10 mg/ampoule, manufactured by Taylor Pharmaceuticals, Decatur, Ill.) was tested at five concentrations each at 10-fold dilutions, i.e., 10^−5, 10^−6, 10^−7, 10^−8 and 10^−9 μg/ml.
(§2) The in vitro tests were performed by incubating the test cells in the presence of the indicated concentration of arsenic trioxide under standard culture conditions for a designated period of time, which is followed by a sulforhodamine B (SRB) protein assay to estimate cell viability or growth. The cell lines are organized into subpanels according to the origin of the cell lines, e.g., leukemia, breast cancer, etc. A description of the cell lines and method of testing is described in Monk et al. (1997, Anticancer Drug Des. 12:533-41) and Weinstein et al., (1997, Science 275:343-9), which are incorporated herein in their entirety.
(§3) The measurement of an effect is expressed in Percentage Growth (PG). The measured effect of the compound on a cell line is calculated according to one or the other of the following two expressions: If (Mean ODtest−Mean ODzero)≧0. then PG=100×(Mean ODtest−Mean ODzero)/(Mean ODctrl−Mean ODzero) If (Mean ODtest−Mean ODzero)<0. then PG=100×(Mean ODtest−Mean ODzero)/(Mean ODzero where: • Mean ODzero=the average of optical density measurements of SRB-derived color just before exposure of cells to the test compounds; • Mean ODtest=the average of optical density measurements of SRB-derived color after exposure of cells to the test compound for a designated period of time; and • Mean ODctrl=the average of optical density measurements of SRB-derived color after with no exposure of cells to the test compound for a designated period of time
(§4) The first two columns describe the subpanel (e.g., leukemia) and cell line (e.g., CCRF-CEM) involved. The next two columns list the Mean ODzero and Mean ODctrl; the next five columns list the Mean ODtest for each of five different concentrations. Each concentration is expressed as the log10 (molar or μg/ml). The next five columns list the calculated PGs for each concentration. The response parameters GI50, TGI and LC50 are interpolated values representing the concentrations at which the PG is +50, 0, and −50, respectively. Sometimes these response parameters cannot be obtained by interpolation. If, for instance, all of the PGs in a given row exceed +50, then none of the three parameters can be obtained by interpolation. In such a case, the value given for each response parameter is the highest concentration tested and is preceded by a “>” sign. This practice is extended similarly to the other possible situations where a response parameter cannot be obtained by interpolation.
(§5) In the first set, the cells from 56 different cancer cell lines were exposed to five concentrations of arsenic trioxide continuously for two days prior to performing the SRB assay. In the second set, the cells from 50 different cell lines (a subset of the first 56 cell lines, plus the renal cancer cell line 786-0) were exposed continuously for six days prior to the SRB assay.

HS 578T = experiment: SRB growth assay, 2 days exposure, breast cancer
Procedure: as §1, §2, §3, §4, §5

MDA-MB-231/ATCC = experiment: SRB growth assay, 2 days exposure, breast cancer
Procedure: as §1, §2, §3, §4, §5

MDA-N = experiment: SRB growth assay, 2 days exposure, breast cancer
Procedure: as §1, §2, §3, §4, §5

BT-549 = experiment: SRB growth assay, 2 days exposure, breast cancer
Procedure: as §1, §2, §3, §4, §5

MCF7 = experiment: SRB growth assay, 2 days exposure, breast cancer
Procedure: as §1, §2, §3, §4, §5

UACC-62 = experiment: SRB growth assay, 2 days exposure, melanoma
Procedure: as §1, §2, §3, §4, §5

M14 = experiment: SRB growth assay, 2 days exposure, melanoma
Procedure: as §1, §2, §3, §4, §5

SK-MEL-2 = experiment: SRB growth assay, 2 days exposure, melanoma
Procedure: as §1, §2, §3, §4, §5

SK-MEL-5 = experiment: SRB growth assay, 2 days exposure, melanoma
Procedure: as §1, §2, §3, §4, §5

SK-MEL-28 = experiment: SRB growth assay, 2 days exposure, melanoma
Procedure: as §1, §2, §3, §4, §5

UACC-257 = experiment: SRB growth assay, 2 days exposure, melanoma
Procedure: as §1, §2, §3, §4, §5

LOX IMVI = experiment: SRB growth assay, 2 days exposure, melanoma
Procedure: as §1, §2, §3, §4, §5

MALME-3M = experiment: SRB growth assay, 2 days exposure, melanoma
Procedure: as §1, §2, §3, §4, §5

With arsenic trioxide the TGI (NCI/ADR-RES) was >0.0126 ng/mL, the “Percent Growth” value (NCI/ADR-RES; log10 conc −4.9) was 45% and the “Percent Growth” value (NCI/ADR-RES; log10 conc −5.9) was 92%. For the same substance, the “Percent Growth” value (NCI/ADR-RES; log10 conc −6.9) was 104%, the “Percent Growth” value (NCI/ADR-RES; log10 conc −7.9) was 99% and the “Percent Growth” value (NCI/ADR-RES; log10 conc −8.9) was 118%. The TGI (HS 578T) was >0.0126 ng/mL, the “Percent Growth” value (HS 578T; log10 conc −4.9) was 42% and the “Percent Growth” value (HS 578T; log10 conc −5.9) was 105%. For the same substance, the “Percent Growth” value (HS 578T; log10 conc −6.9) was 96%, the “Percent Growth” value (HS 578T; log10 conc −7.9) was 105% and the “Percent Growth” value (HS 578T; log10 conc −8.9) was 109%. The TGI (MDA-MB-231/ATCC) was >0.0126 ng/mL, the “Percent Growth” value (MDA-MB-231/ATCC; log10 conc −4.9) was 3% and the “Percent Growth” value (MDA-MB-231/ATCC; log10 conc −5.9) was 107%. For the same substance, the “Percent Growth” value (MDA-MB-231/ATCC; log10 conc −6.9) was 109%, the “Percent Growth” value (MDA-MB-231/ATCC; log10 conc −7.9) was 102% and the “Percent Growth” value (MDA-MB-231/ATCC; log10 conc −8.9) was 97%. For the same substance, the TGI (MDA-N) was >0.0126 ng/mL, the “Percent Growth” value (MDA-N; log10 conc −4.9) was 3% and the “Percent Growth” value (MDA-N; log10 conc −5.9) was 86%. For the same substance, the “Percent Growth” value (MDA-N; log10 conc −6.9) was 91%, the “Percent Growth” value (MDA-N; log10 conc −7.9) was 101% and the “Percent Growth” value (MDA-N; log10 conc −8.9) was 102%. The TGI (BT-549) was >0.0126 ng/mL, the “Percent Growth” value (BT-549; log10 conc −4.9) was 26% and the “Percent Growth” value (BT-549; log10 conc −5.9) was 84%. For the same substance, the “Percent Growth” value (BT-549; log10 conc −6.9) was 108%, the “Percent Growth” value (BT-549; log10 conc −7.9) was 110% and the “Percent Growth” value (BT-549; log10 conc −8.9) was 114%. The TGI (MCF7) was >0.0126 ng/mL, the “Percent Growth” value (MCF7; log10 conc −4.9) was 11% and the “Percent Growth” value (MCF7; log10 conc −5.9) was 95%. For the same substance, the “Percent Growth” value (MCF7; log10 conc −6.9) was 108%, the “Percent Growth” value (MCF7; log10 conc −7.9) was 98% and the “Percent Growth” value (MCF7; log10 conc −8.9) was 99%. For the same substance, the TGI (UACC-62) was >0.0126 ng/mL, the “Percent Growth” value (UACC-62; log10 conc −4.9) was 6% and the “Percent Growth” value (UACC-62; log10 conc −5.9) was 96%. For the same substance, the “Percent Growth” value (UACC-62; log10 conc −6.9) was 103%, the “Percent Growth” value (UACC-62; log10 conc −7.9) was 103% and the “Percent Growth” value (UACC-62; log10 conc −8.9) was 104%. The TGI (M14) was >0.0126 ng/mL, the “Percent Growth” value (M14; log10 conc −4.9) was 3% and the “Percent Growth” value (M14; log10 conc −5.9) was 87%. For the same substance, the “Percent Growth” value (M14; log10 conc −6.9) was 96%, the “Percent Growth” value (M14; log10 conc −7.9) was 105% and the “Percent Growth” value (M14; log10 conc −8.9) was 98%. For the same substance, the TGI (SK-MEL-2) was 0.00881 ng/mL, the “Percent Growth” value (SK-MEL-2; log10 conc −4.9) was −17% and the “Percent Growth” value (SK-MEL-2; log10 conc −5.9) was 91%. For the same substance, the “Percent Growth” value (SK-MEL-2; log10 conc −6.9) was 110%, the “Percent Growth” value (SK-MEL-2; log10 conc −7.9) was 103% and the “Percent Growth” value (SK-MEL-2; log10 conc −8.9) was 113%. For the same substance, the TGI (SK-MEL-5) was >0.0126 ng/mL, the “Percent Growth” value (SK-MEL-5; log10 conc −4.9) was 0% and the “Percent Growth” value (SK-MEL-5; log10 conc −5.9) was 78%. For the same substance, the “Percent Growth” value (SK-MEL-5; log10 conc −6.9) was 95%, the “Percent Growth” value (SK-MEL-5; log10 conc −7.9) was 97% and the “Percent Growth” value (SK-MEL-5; log10 conc −8.9) was 96%. For the same substance, the TGI (SK-MEL-28) was >0.0126 ng/mL, the “Percent Growth” value (SK-MEL-28; log10 conc −4.9) was 6% and the “Percent Growth” value (SK-MEL-28; log10 conc −5.9) was 94%. For the same substance, the “Percent Growth” value (SK-MEL-28; log10 conc −6.9) was 101%, the “Percent Growth” value (SK-MEL-28; log10 conc −7.9) was 103% and the “Percent Growth” value (SK-MEL-28; log10 conc −8.9) was 100%. The TGI (UACC-257) was >0.0126 ng/mL, the “Percent Growth” value (UACC-257; log10 conc −4.9) was 40% and the “Percent Growth” value (UACC-257; log10 conc −5.9) was 88%. For the same substance, the “Percent Growth” value (UACC-257; log10 conc −6.9) was 104%, the “Percent Growth” value (UACC-257; log10 conc −7.9) was 97% and the “Percent Growth” value (UACC-257; log10 conc −8.9) was 101%. The TGI (LOX IMVI) was >0.0126 ng/mL, the “Percent Growth” value (LOX IMVI; log10 conc −4.9) was 13% and the “Percent Growth” value (LOX IMVI; log10 conc −5.9) was 73%. The “Percent Growth” value (LOX IMVI; log10 conc −6.9) was 71%, the “Percent Growth” value (LOX IMVI; log10 conc −7.9) was 88% and the “Percent Growth” value (LOX IMVI; log10 conc −8.9) was 89%. The TGI (MALME-3M) was 0.00602 ng/mL, the “Percent Growth” value (MALME-3M; log10 conc −4.9) was −42% and the “Percent Growth” value (MALME-3M; log10 conc −5.9) was 90%. For the same substance, the “Percent Growth” value (MALME-3M; log10 conc −6.9) was 102%, the “Percent Growth” value (MALME-3M; log10 conc −7.9) was 123% and the “Percent Growth” value (MALME-3M; log10 conc −8.9) was 138%.
